We go through five compounds from paper PMC10974275, “Pharmacokinetic Interaction of Kratom and Cannabidiol in Male Rats” (Pharmaceutics, 2024).

Like-named read-outs stand apart in the source and are kept apart here.

Series [1] in a line: Multiple-dose (steady-state) pharmacokinetics of concomitant cannabidiol and kratom product. As to conditions: mean ± SEM; for Accumulation Index / Fluctuation / concentration at 5 days / AUC(0-inf) / AUC / Cmax at 5 days: 5-day q12 h oral 25 mg/kg cannabidiol and kratom product (Eq. 4.7 mg/kg mitragynine); for AUC0–∞/dose / CL/F at 5 days / Vd/F at 5 days: Multiple-Dose; for AUC0–∞/dose: dose-normalized; for concentration at 5 days / CL/F at 5 days / Vd/F at 5 days / AUC(0-inf) / AUC / Cmax at 5 days: male, Sprague-Dawley, rat; for concentration at 5 days / CL/F at 5 days / Vd/F at 5 days / AUC(0-inf) / AUC: plasma; for concentration at 5 days: oral; for CL/F at 5 days / Vd/F at 5 days: po; for CL/F at 5 days: read-out: CL/F (apparent oral clearance) (converted); for Vd/F at 5 days: read-out: V/F (apparent volume of distribution); for AUC(0-inf): from time 0 (96 h) extrapolated to infinity; for AUC: over the dosing interval (12 h); for Cmax at 5 days: maximum plasma concentration at steady-state. The class given is in vivo, male Sprague-Dawley rats. On the procedure:
(§1) Male Sprague-Dawley rats (weight 250 ± 25 g) were obtained from Envigo (Indianapolis, IN, USA) with indwelling jugular vein catheters. Animals were acclimated for ≥72 h in a temperature- and humidity-controlled vivarium on a 12 h light/dark cycle. All studies were approved by the University of Florida’s Institutional Animal Care and Use Committee (IACUC) and carried out in accordance with Association for Assessment and Accreditation of Laboratory Animal Care International (AAALAC) and National Institute of Health (NIH) guidelines. In the single-dose studies, rats were fasted for 10 h prior to dosing and an additional 2 h post-dose.
(§2) For the single-dose study, rats were pretreated with 50 mg/kg cannabidiol by oral gavage and, after 30 min, were dosed with 0.8 mL/kg OPMS Gold solution. A period of 30 min was observed between doses to reduce the likelihood of interactions between the formulations in the stomach. Rats were connected to an automatic blood collection system (BASi, West Lafayette, IN, USA), and blood samples were taken pre-kratom product dose and 0.08, 0.17, 0.25, 0.5, 1, 2, 3, 4, 6, 8, 12, 18, 24, 30, 36, 42, and 48 h after kratom product dose administration. For the multiple-dose study, rats were pretreated with 25 mg/kg cannabidiol and, after 30 min, were dosed with 0.4 mL/kg OPMS Gold solution every 12 h (0900 and 2100) for a period of 4 days. Blood samples were taken prior to the 0900 dose (24, 48, 72, 96 h). […] Plasma was separated from blood by centrifugation at 850× g for 10 min at 4 °C. Samples were stored at −20 °C until analysis.
(§3) Standards were prepared by adding 2.0 μL of CS or QC stock to 18 μL of blank rat plasma. This generated eight calibration standards (5–500 ng/mL) and four QC standards (5, 8, 200, and 400 ng/mL). After spiking, the standards were vortex-mixed for 5 min at 650 rpm. Analytes were precipitated with 80 μL methanol acidified with 0.05% formic acid containing 25 ng/mL IS-1 and IS-2 (Quenching Solution; QS). Samples were transferred to a 96-well filter plate and centrifuged at 850× g for 2 min at 4 °C. Study samples were prepared in the same manner by aliquoting 20 μL and adding 80 μL QS prior to vortex mixing and filtration.
(§4) Samples were analyzed using previously validated ultraperformance liquid chromatography-tandem mass spectrometry (UPLC-MS/MS) methods for the quantification of cannabinoids and alkaloids in rat plasma. Both methods used a Waters Acquity I-Class UPLC coupled to a Xevo TQ-S micro mass spectrometer (Waters, Milford, MA, USA). The source gas was nitrogen, and the collision gas was argon. The autosampler was maintained at 10 °C.
(§5) For the cannabinoid bioanalytical method, a 1.7 µm, 2.1 x 100 mm C18 BEH column was utilized with a pre-column of the same chemistry (Waters, Milford, MA, USA) held at 40 °C. […] Cannabidiol was detected in positive electrospray ionization mode using multiple reaction monitoring.
(§6) For the peak separations of kratom alkaloids required for quantification, a 1.7 µm, […] × 100 mm C18 BEH column with a pre-column of the same chemistry (Waters, Milford, MA, USA) was utilized and held at 50 °C throughout the analysis. A gradient elution was used with mobile phase of aqueous ammonium acetate buffer [2.5 mM, pH 3.5 (A)] and acetonitrile (B). The gradient was held at 90% A for 1 min and decreased to 60% by 10 min. From 10 to 10.5 min, the percent of A was decreased sharply to 30% and was then set to initial conditions from 10.5 to 11 min to re-equilibrate the column. The alkaloids were detected in positive electrospray ionization mode using multiple reaction monitoring.
The TargetLynx™ application of MassLynx™ was used for data processing and quantification of the UPLC-MS/MS data (Waters, Milford, MA, USA). Phoenix Version 6.4 (Certara, Princeton, NJ, USA) was used to perform a non-compartmental analysis of concentration–time data. GraphPad Prism Version 8 (GraphPad Software, San Diego, CA, USA) was used to generate all figures.

On the set-up of series [2]: method as in PMID 33620222. As to conditions: n = 4, mean ± SEM, cited from earlier work.
The nature of series [3]: Single-dose pharmacokinetics of concomitant cannabidiol product and kratom product. Format: in vivo, male Sprague-Dawley rats. Particulars: for AUC0–∞/dose / CL/F / Vd/F: Single-Dose; for AUC0–∞/dose: dose-normalized; for CL/F / Vd/F: plasma; for CL/F: read-out: CL/F (apparent oral clearance) (converted); for Vd/F: read-out: V/F (apparent volume of distribution); for AUC(0-t): read-out: AUC0–24. The protocol:
as §1, §2, §3, §4, §5, §6
The TargetLynx™ application of MassLynx™ was used for data processing and quantification of the UPLC-MS/MS data (Waters, Milford, MA, USA). Phoenix Version 6.4 (Certara, Princeton, NJ, USA) was used to perform a non-compartmental analysis of concentration–time data. GraphPad Prism Version 8 (GraphPad Software, San Diego, CA, USA) was used to generate all figures. […]

A short description of series [4]: Single oral dose pharmacokinetics of cannabidiol product alone. As to conditions: male, Sprague-Dawley, rat, cannabidiol in plasma, single oral dose of cannabidiol product alone (50 mg/kg), n = 4, mean ± SEM. Format: in vivo, male Sprague-Dawley rats.
Series [5] can be described thus: Single oral dose pharmacokinetics of kratom product alone (control data from Kamble et al.). As to conditions: without cannabidiol.
The mark [6] stands for this setting: average plasma concentration at steady-state, read-out: Cavg,ss.
The mark [7] stands for this setting: minimum plasma concentration at steady-state, read-out: Cmin,ss.
Setting [8] is: mitragynine in plasma, single oral dose of kratom product alone (9.6 mg/kg mitragynine).
The mark [9] stands for this setting: male, Sprague-Dawley, rat, po, mean ± SEM.
Where [10] appears, read: male, Sprague-Dawley, rat, mitragynine in plasma, single concomitant oral dose of cannabidiol product (50 mg/kg) and kratom product (9.4 mg/kg mitragynine), n = 5, mean ± SEM.
Where [11] appears, read: minor kratom alkaloid/metabolite in plasma, single oral dose of kratom product alone.
The mark [12] stands for this setting: male, Sprague-Dawley, rat, po, minor kratom alkaloid/metabolite in plasma, single concomitant dose of cannabidiol and kratom product, n = 5, mean ± SEM.
Setting [13] is: male, Sprague-Dawley, rat, po, minor kratom alkaloid/metabolite in plasma, single concomitant dose of cannabidiol and kratom product, n = 5, mean ± SEM, read-out: Cmax.
Where [14] appears, read: cannabidiol, cannabidiol plus kratom product vs cannabidiol product alone, single dose.
Where [15] appears, read: male, Sprague-Dawley, rat, cannabidiol in plasma, single concomitant oral dose of cannabidiol product (50 mg/kg) and kratom product (9.4 mg/kg mitragynine), n = 5, mean ± SEM.
Setting [16] is: minor kratom alkaloid/metabolite in plasma, single concomitant dose of cannabidiol and kratom product, n = 5, mean ± SEM.

One may read the AUC(0-inf) as total exposure, with the tail of the curve extrapolated. Broadly, the AUC is concentration integrated over time. One may read the Cmax as the highest concentration seen after dosing. By Tmax is commonly meant the time at which the peak concentration occurs. Regarding `CC[C@@H]1CN2CCc3c([nH]c4cccc(OC)c34)[C@@H]2C[C@@H]1/C(=C\OC)C(=O)OC` [Mitragynine, mitragynine], in series [1], the “Accumulation Index” value stood at 1.4 ± 0.1, the Fluctuation is listed as 90.0 ± 11.3%, the “AUC0–∞/dose” value stood at 605.8 ± 153.1 ng·h/mL/mg/kg and the CL/F at 5 days is 51.7 mL/min/kg. In addition, in series [1], the Vd/F at 5 days is 28.7 ± 3.7 L/kg, the AUC(0-inf) is 2910 ± 735 ng·h/mL, the AUC stood at 1810 ± 417 ng·h/mL and the Cmax at 5 days is 218 ± 40 ng/mL. Also, the Fluctuation in series [1] (listed as mitragynine) was approximately 100%. Besides, the concentration at 5 days in series [1] (setting [6]) was 151 ± 34.7 ng/mL. In series [1] (setting [7]), the concentration at 5 days was 91.1 ± 24.9 ng/mL. In addition, in series [2] (setting [8]), the “AUC0–24” value is 1306.8 ± 126.1 ng·h/mL, the Cmax is 111.9 ± 15.6 ng/mL and the Tmax is recorded as 3.1 ± 1.7 h. Besides, the “AUC0–∞/dose” value in series [3] (mean ± SEM) worked out at 578.6 ± 187.9 ng·h/mL/mg/kg. Further, in series [3] (setting [9]), the CL/F was 38.3 mL/min/kg and the Vd/F was found to be 25.8 ± 7.5 L/kg. In addition, in series [3] (setting [10]), the Tmax turned out to be 17 ± 4.6 h and the AUC(0-t) was 5350 ± 1150 ng·h/mL. In addition, in series [3] (male, Sprague-Dawley, rat, mitragynine in plasma, single concomitant oral dose of cannabidiol product (50 mg/kg) and kratom product (9.4 mg/kg mitragynine), n = 5, mean ± SEM, read-out: Cmax), the Cmax was 253 ± 68.3 ng/mL.
For `CC[C@@H]1CN2CCc3c([nH]c4cccc(OC)c34)[C@H]2C[C@@H]1/C(=C\OC)C(=O)OC` [Speciociliatine, speciociliatine], in series [2] (setting [11]), the “AUC0–24” value was 222.7 ± 22.2 ng·h/mL, the Cmax is listed as 23.8 ± 1.4 ng/mL and the Tmax is recorded as 3.2 ± 1.6 h. In series [3] (setting [12]), the Tmax was determined as 17 ± 5.9 h and the AUC(0-t) is 990 ± 93.7 ng·h/mL. In series [3] (setting [13]), the Cmax was found to be 68.1 ± 5.9 ng/mL.
As to `C=C[C@H]1CN2CCc3c([nH]c4cccc(OC)c34)[C@@H]2C[C@@H]1/C(=C\OC)C(=O)OC` [Paynantheine, paynantheine], in series [2] (setting [11]), the Cmax was 3.0 ± 1.7 ng/mL and the time of peak concentration (Tmax) was 0.08 ± 0.0 h. Further, in series [3] (setting [12]), the Tmax stood at 16.2 ± 4.9 h and the AUC(0-t) is 290 ± 96.4 ng·h/mL. The Cmax in series [3] (setting [13]) amounted to 19.8 ± 5.8 ng/mL.
As to `C=C(C)[C@@H]1CCC(C)=C[C@H]1c1c(O)cc(CCCCC)cc1O` [Cannabidiol], in series [4], the concentration peaked (Cmax) at 589 ± 38.3 ng/mL and the Tmax is 3.8 ± 1.5 h. For the same compound, in series [4] (read-out: AUC0–24), the AUC(0-t) worked out at 4400 ± 319 ng·h/mL. Besides, in series [1], the “Accumulation Index” value is 1.8 ± 0.0, the Fluctuation came to 219.0 ± 42.7%, the “AUC0–∞/dose” value was determined as 140.8 ± 34.0 ng·h/mL/mg/kg and the CL/F at 5 days is 217 mL/min/kg. In series [1], the Vd/F at 5 days was 192 ± 42.1 L/kg, the AUC(0-inf) was 3520 ± 851 ng·h/mL, the AUC worked out at 2450 ± 615 ng·h/mL and the Cmax at 5 days was determined as 489 ± 96.2 ng/mL. Further, in series [1] (setting [6]), the concentration at 5 days was determined as 204 ± 51.3 ng/mL. Further, the concentration at 5 days in series [1] (setting [7]) was 80.9 ± 23.7 ng/mL. Also, the “AUC0–∞/dose” value in series [3] (mean ± SEM) was 97.8 ± 18.5 ng·h/mL/mg/kg. Moreover, in series [3] (setting [14]), the “AUC0–24 Fold Change (90% CI Ratio)” value was 1.0 (0.8, 1.1) and the “Cmax Fold Change (90% CI Ratio)” value is 0.8 (0.7, 0.9). For the same compound, in series [3] (cannabidiol, coadministration with kratom vs cannabidiol alone, single dose), the “range of 90% confidence interval values of AUC0–24 fold change” value was 0.8–1.1. In series [3] (setting [9]), the CL/F was 192 mL/min/kg and the Vd/F was 164 ± 26.3 L/kg. In addition, in series [3] (setting [15]), the Tmax worked out at 6.3 ± 1 h and the AUC(0-t) is 4180 ± 614 ng·h/mL. Further, the Cmax in series [3] (male, Sprague-Dawley, rat, cannabidiol in plasma, single concomitant oral dose of cannabidiol product (50 mg/kg) and kratom product (9.4 mg/kg mitragynine), n = 5, mean ± SEM, read-out: Cmax) was determined as 491 ± 69.2 ng/mL.
Take `CC[C@@H]1CN2CC[C@@]3(O)C(=Nc4cccc(OC)c43)[C@@H]2C[C@@H]1/C(=C\OC)C(=O)OC` [7-hydroxymitragynine]: in series [2] (setting [11]), the “AUC0–24” value is 41.0 ± 7.6 ng·h/mL, the Cmax was 4.0 ± 0.6 ng/mL and the Tmax is reported as 3.1 ± 1.7 h. Further, in series [5], the “metabolite to parent (mitragynine) exposure ratio percent” value was 3.1%. In addition, in series [3] (setting [16]), the “AUC0–24” value was found to be 189.2 ± 27.7 ng·h/mL and the Cmax came to 17.5 ± 2.3 ng/mL. In addition, the “metabolite to parent (mitragynine) exposure ratio percent” value in series [3] (with cannabidiol, single concomitant dose of cannabidiol and kratom product) amounted to 3.5%.
